Data from ChEMBL document CHEMBL1201862, “PubChem BioAssay data set” (2004).
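Following 48 hours of exposure in 96-well plates, responses at five concentrations were used to interpolate endpoints linearly. GI50 marks 50% less growth.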 The source made the active and inactive calls. Cut-off read from the data, not from the text of the source: active = GI50 up to about 1.1 µM and inactive = higher.

Assays:
Assay in all cases: growth of human tumour cells (NCI), 48 h
OVCAR-8 = test system: OVCAR-8
A498 = test system: A498
UACC-257 = test system: UACC-257
SK-MEL-28 = test system: SK-MEL-28
K562 = test system: K562
SR = test system: SR
NCI-H460 = test system: NCI-H460
SW-620 = test system: SW-620
Malme-3M = test system: Malme-3M
ACHN = test system: ACHN
M14 = test system: M14
EKVX = test system: EKVX
TK-10 = test system: TK-10
A549 = test system: A549
NCI-H226 = test system: NCI-H226
HOP-62 = test system: HOP-62
RXF 393 = test system: RXF 393
DU-145 = test system: DU-145
SK-OV-3 = test system: SK-OV-3

Measured: GI50

Cc1cc(=O)oc2c(OS(C)(=O)=O)c(OS(C)(=O)=O)ccc12
inactive: OVCAR-8 > 100 µM | A498 > 100 µM | UACC-257 > 100 µM | SK-MEL-28 > 100 µM | K562 > 100 µM | SR > 100 µM | NCI-H460 > 100 µM | SW-620 > 100 µM | Malme-3M > 100 µM | ACHN > 100 µM | M14 > 100 µM | EKVX > 100 µM | TK-10 > 100 µM | A549 > 100 µM | NCI-H226 > 100 µM | HOP-62 > 100 µM

COC(=O)Nc1nc2cc(NS(=O)(=O)c3cccs3)ccc2[nH]1
inactive: OVCAR-8 36.4 µM | RXF 393 19.3 µM | A498 28 µM | SK-MEL-28 19.3 µM | K562 5.53 µM | NCI-H460 32.2 µM | SW-620 20.7 µM | Malme-3M 10.4 µM | ACHN 42.8 µM | M14 21.5 µM | EKVX 22.4 µM | TK-10 25.9 µM | DU-145 47.3 µM | A549 43.9 µM | NCI-H226 32.2 µM | SK-OV-3 28.4 µM | HOP-62 26.4 µM

CC(C)=C[C@H]1CCC2(OCCO2)[C@]1(C)CO
inactive: OVCAR-8 > 100 µM | RXF 393 > 100 µM | A498 > 100 µM | UACC-257 > 100 µM | SK-MEL-28 > 100 µM | NCI-H460 > 100 µM | SW-620 > 100 µM | Malme-3M > 100 µM | ACHN > 100 µM | M14 > 100 µM | EKVX 58.7 µM | TK-10 > 100 µM | A549 > 100 µM | NCI-H226 > 100 µM | SK-OV-3 > 100 µM

N#CCCN(c1ccc(C=O)cc1)S(=O)(=O)c1ccccc1
inactive: OVCAR-8 > 100 µM | A498 > 100 µM | UACC-257 > 100 µM | SK-MEL-28 > 100 µM | K562 > 100 µM | SR > 100 µM | NCI-H460 > 100 µM | SW-620 > 100 µM | Malme-3M > 100 µM | ACHN > 100 µM | M14 > 100 µM | EKVX > 100 µM | A549 > 100 µM | NCI-H226 > 100 µM | SK-OV-3 > 100 µM | HOP-62 > 100 µM

CCOC(=O)C1C(C)C2(C#N)C(=N)OC1(C)C2(C#N)C#N (configuration not stated)
inactive: OVCAR-8 > 100 µM | RXF 393 25.8 µM | A498 > 100 µM | UACC-257 42.1 µM | SK-MEL-28 28.1 µM | K562 39.4 µM | SW-620 84.7 µM | Malme-3M 77.3 µM | ACHN 38.6 µM | M14 > 100 µM | EKVX > 100 µM | TK-10 77.6 µM | DU-145 78.5 µM | A549 > 100 µM | NCI-H226 73.8 µM | SK-OV-3 > 100 µM

CC(CO)C1C[C@H](O)[C@@]2(C)CC(=O)C=C(CO)[C@@H]2C1 (some centres not stated)
inactive: OVCAR-8 > 100 µM | RXF 393 > 100 µM | A498 > 100 µM | UACC-257 > 100 µM | SK-MEL-28 > 100 µM | NCI-H460 > 100 µM | SW-620 > 100 µM | ACHN > 100 µM | M14 > 100 µM | EKVX > 100 µM | TK-10 > 100 µM | DU-145 > 100 µM | A549 > 100 µM | NCI-H226 > 100 µM | SK-OV-3 > 100 µM | HOP-62 > 100 µM

CC(=O)OCCCCn1nncc1Cn1ccc(=O)n(Cc2cnnn2CCCCOC(C)=O)c1=O
inactive: OVCAR-8 > 100 µM | RXF 393 > 100 µM | A498 > 100 µM | UACC-257 > 100 µM | SK-MEL-28 > 100 µM | SW-620 > 100 µM | Malme-3M > 100 µM | ACHN > 100 µM | M14 > 100 µM | EKVX > 100 µM | TK-10 > 100 µM | DU-145 > 100 µM | A549 > 100 µM | NCI-H226 > 100 µM | SK-OV-3 > 100 µM | HOP-62 > 100 µM

CC(C(O)c1ccccc1)N(C)/N=N/c1nc2c([nH]1)c(=O)n(C)c(=O)n2C (configuration not stated)
inactive: OVCAR-8 > 100 µM | RXF 393 42.9 µM | UACC-257 > 100 µM | SK-MEL-28 > 100 µM | K562 91 µM | NCI-H460 25.2 µM | SW-620 > 100 µM | Malme-3M > 100 µM | ACHN 36.6 µM | M14 > 100 µM | EKVX 88.1 µM | TK-10 64.1 µM | DU-145 99.3 µM | A549 50.8 µM | NCI-H226 > 100 µM | SK-OV-3 > 100 µM | HOP-62 > 100 µM

CCOC(=O)C(C(=O)c1ccccc1)=C1NCCN1
inactive: OVCAR-8 > 100 µM | RXF 393 > 100 µM | UACC-257 > 100 µM | SK-MEL-28 > 100 µM | K562 > 100 µM | SR > 100 µM | NCI-H460 > 100 µM | SW-620 > 100 µM | Malme-3M > 100 µM | ACHN > 100 µM | M14 > 100 µM | EKVX > 100 µM | A549 > 100 µM | NCI-H226 > 100 µM | HOP-62 > 100 µM

COc1cc2c(cc1O)CC[n+]1cc3c(OC)c(OC)ccc3cc1-2
inactive: OVCAR-8 > 100 µM | A498 > 100 µM | UACC-257 90.4 µM | SK-MEL-28 > 100 µM | K562 75 µM | NCI-H460 > 100 µM | SW-620 > 100 µM | Malme-3M 59.6 µM | ACHN > 100 µM | M14 > 100 µM | EKVX > 100 µM | TK-10 > 100 µM | DU-145 > 100 µM | A549 > 100 µM | NCI-H226 > 100 µM | SK-OV-3 > 100 µM

C=CCCCC1CCCNC1=O (configuration not stated)
inactive: OVCAR-8 > 100 µM | RXF 393 > 100 µM | A498 > 100 µM | UACC-257 > 100 µM | SK-MEL-28 > 100 µM | K562 > 100 µM | NCI-H460 42.6 µM | SW-620 > 100 µM | ACHN > 100 µM | M14 > 100 µM | EKVX > 100 µM | TK-10 > 100 µM | DU-145 > 100 µM | A549 > 100 µM | NCI-H226 > 100 µM | SK-OV-3 > 100 µM | HOP-62 > 100 µM

COc1ccc(S(=O)(=O)N(CC(=O)O)c2ccccc2)cc1
inactive: OVCAR-8 > 100 µM | RXF 393 > 100 µM | A498 > 100 µM | UACC-257 > 100 µM | SK-MEL-28 > 100 µM | K562 > 100 µM | NCI-H460 > 100 µM | SW-620 > 100 µM | Malme-3M > 100 µM | ACHN > 100 µM | M14 > 100 µM | EKVX > 100 µM | TK-10 > 100 µM | A549 > 100 µM | SK-OV-3 > 100 µM
